pIC50: −log10 of the molar value.
Tested on: Plasmodium berghei
Assay: Luciferase/luciferin-expressing antifolate-resistant parasites were used to infect a culture of HepG2 cells that were pre-incubated with compounds. Infected hepatocytes emit light due to the luciferase reaction. Assay results are presented as the percent inhibition of light emission compared to control. […]
Type: functional
Details: sporozoite; for IC90: read-out: LUCIFERASE INFECTION ASSAY - IC90
[1] = read-out: LUCIFERASE INFECTION ASSAY - IC50

SMILES | IC90 [µM] | pIC50 [1] | further results
CCCCNC(=O)Nc1nc(-c2ccccc2)cn1/N=C/c1ccccc1 | > 10 | – | pIC50 (HEPG2TOX_HILL_SLOPE 8.27, HEPG2TOX_R_SQUARED 0.417, read-out: LUCIFERASE INFECTION ASSAY - IC50): < 5.00
Fc1cccc(-n2ccnc2SCc2nc3ccccc3s2)c1 | > 10 | – | pIC50 (PBLUC_HILL_SLOPE 1.97, PBLUC_R_SQUARED 0.394, read-out: LUCIFERASE INFECTION ASSAY - IC50): 5.16
C(=C(c1nc2ccccc2s1)c1nc2ccccc2s1)c1ccncc1 | 6.3 | – | pIC50 (HEPG2TOX_HILL_SLOPE 11.7, HEPG2TOX_R_SQUARED 0.737, PBLUC_HILL_SLOPE 3.59, 2.80, PBLUC_R_SQUARED 0.729, 0.898, read-out: LUCIFERASE INFECTION ASSAY - IC50): 5.51
COc1cccc(CC(=O)Nc2ccc(N3CCNC(=O)C3)c(Cl)c2)c1 | > 10 | < 5.00 | –
CCc1cc(C(=O)Nc2ncccc2O)sc1C | > 10 | – | pIC50 (FFLUC_HILL_SLOPE 0.955, FFLUC_R_SQUARED 0.833, PBLUC_HILL_SLOPE 2.67, PBLUC_R_SQUARED 0.448, read-out: LUCIFERASE INFECTION ASSAY - IC50): 5.31
CCC1CCCCN1C(=O)CSC(=Nc1ccccc1F)C(C#N)c1nc2ccccc2s1 (configuration not stated) | 9.73 | – | pIC50 (HEPG2TOX_HILL_SLOPE 76.7, HEPG2TOX_R_SQUARED 0.475, PBLUC_HILL_SLOPE 22.7, PBLUC_R_SQUARED 0.0851, read-out: LUCIFERASE INFECTION ASSAY - IC50): 5.05
Oc1c(Cl)cc(Cl)cc1/C=N/NC(=S)NC1CCCCC1 | 9.37 | – | pIC50 (HEPG2TOX_HILL_SLOPE 8.84, HEPG2TOX_R_SQUARED 0.571, PBLUC_HILL_SLOPE 15.3, PBLUC_R_SQUARED 0.312, read-out: LUCIFERASE INFECTION ASSAY - IC50): 5.09
Cc1nc(NC(=O)c2ccc(-n3ccnc3)nc2)sc1SCC#N | > 10 | < 5.00 | –
COCC(C)n1c(C)cc(C(=O)CSc2ncnc3sc(C)c(C)c23)c1C (configuration not stated) | > 10 | < 5.00 | –
COc1cc(NC(=O)Nc2ccc3nc(-c4ccoc4)nn3c2)cc(OC)c1OC | > 10 | < 5.00 | –
O=S(=O)(NCCCCOc1ccc(Cl)cc1)c1ccc(S(=O)(=O)N2CCOCC2)cc1 | > 10 | 5.00 | –
CC(C)NC(=O)c1csc(C(O)c2ccc(C(C)(C)C)cc2)n1 (configuration not stated) | 8.8 | – | pIC50 (HEPG2TOX_HILL_SLOPE 1.76, HEPG2TOX_R_SQUARED 0.8, PBLUC_HILL_SLOPE 2.52, PBLUC_R_SQUARED 0.456, read-out: LUCIFERASE INFECTION ASSAY - IC50): 5.43
N#Cc1cc(C(=O)c2ccc([N+](=O)[O-])cc2)c2nc3ccccc3n2c1N | > 10 | – | pIC50 (HEPG2TOX_HILL_SLOPE 7.9, HEPG2TOX_R_SQUARED 0.276, PBLUC_HILL_SLOPE 1.76, PBLUC_R_SQUARED 0.097, read-out: LUCIFERASE INFECTION ASSAY - IC50): 5.03
O=C(Nc1nc(-c2cccs2)cs1)c1cc(-c2ccccc2)nn1-c1ccccc1 | > 10 | – | pIC50 (FFLUC_HILL_SLOPE 3.07, FFLUC_R_SQUARED 0.622, PBLUC_HILL_SLOPE 1.11, PBLUC_R_SQUARED 0.202, read-out: LUCIFERASE INFECTION ASSAY - IC50): < 5.00
C/C(=N\Nc1ccnc2cc(Cl)ccc12)c1ccc(-n2ccnc2)cc1 | > 10 | – | pIC50 (HEPG2TOX_HILL_SLOPE 8.87, HEPG2TOX_R_SQUARED 0.252, read-out: LUCIFERASE INFECTION ASSAY - IC50): < 5.00
CCCCCCOc1ccc(-c2cnc(SC)nc2)cc1 | 0.535 | 6.69 | –
CC1Cc2cc(S(N)(=O)=O)ccc2N1C(=O)CN1CCCN(c2ccc(C(F)(F)F)cn2)CC1 (configuration not stated) | > 10 | – | pIC50 (HEPG2TOX_HILL_SLOPE 3.49, HEPG2TOX_R_SQUARED 0.873, read-out: LUCIFERASE INFECTION ASSAY - IC50): < 5.00
Clc1ccc(Nc2nccc3c2ncn3Cc2ccccc2)cc1 | > 10 | – | pIC50 (HEPG2TOX_HILL_SLOPE 10.4, HEPG2TOX_R_SQUARED 0.978, PBLUC_HILL_SLOPE 0.755, PBLUC_R_SQUARED 0.638, read-out: LUCIFERASE INFECTION ASSAY - IC50): 6.08
Cc1ccc2nc(NC(=O)C(C)Oc3ccccc3)c(C(=O)NC3CCCC3)n2c1 (configuration not stated) | 6.95 | – | pIC50 (PBLUC_HILL_SLOPE 4.38, PBLUC_R_SQUARED 0.362, read-out: LUCIFERASE INFECTION ASSAY - IC50): 5.38
CCOc1cccc(-c2cn3c(-c4ccc(C(=O)N5CCN(C)CC5)cc4)cnc3cn2)c1 | 7.28 | – | pIC50 (PBLUC_HILL_SLOPE 18.7, PBLUC_R_SQUARED 0.82, read-out: LUCIFERASE INFECTION ASSAY - IC50): 5.19
CCCCNC(=O)c1c(NC(=O)c2cccc(F)c2)nc2ccc(C)cn12 | 2.84 | 5.89 | –

SMILES | IC90 [µM] | pIC50 [1] | further results
CN(NS(=O)(=O)c1ccc(Cl)cc1)c1cnn(C)c(=O)c1Cl | > 9.09 | < 5.04 | –
CCCn1c(NC(=O)C2CCCN2C(=O)C23CC4CC(CC(C4)C2)C3)nc2ccccc21 (configuration not stated) | 9.69 | – | pIC50 (PBLUC_HILL_SLOPE 41.1, PBLUC_R_SQUARED 0.0887, read-out: LUCIFERASE INFECTION ASSAY - IC50): 5.04
Cc1nn2c(NCCN(C)C)cc(C(C)C)nc2c1-c1ccccc1 | > 9.78 | < 5.01 | –
Clc1ccccc1-c1cn2c(-c3ccncc3)cnc2cn1 | > 10.8 | – | pIC50 (PBLUC_HILL_SLOPE 5.69, PBLUC_R_SQUARED 0.296, read-out: LUCIFERASE INFECTION ASSAY - IC50): 4.99
O=C1N(Cc2ccccn2)C(=O)C2(CCN(C3CCc4ccccc4C3)CC2)N1Cc1ccccc1 (configuration not stated) | > 6.87 | – | pIC50 (PBLUC_HILL_SLOPE 10, PBLUC_R_SQUARED 0.136, read-out: LUCIFERASE INFECTION ASSAY - IC50): 5.19
Cc1cc(-c2cc(C(=O)N3CCCN(C)c4nc5ccccc5nc43)c3c(C)noc3n2)c(C)s1 | 0.385 | – | pIC50 (PBLUC_HILL_SLOPE 42.2, PBLUC_R_SQUARED 0.606, read-out: LUCIFERASE INFECTION ASSAY - IC50): 6.44
N#Cc1cc(NC(=O)c2ccc(F)cc2)ccc1Sc1cccc(C(F)(F)F)c1 | > 7.93 | 5.51 | –
CC(=O)c1ccc(-c2ccc(C(=O)Nc3nc(-c4ccccn4)cs3)o2)cc1 | 7.29 | – | pIC50 (HEPG2TOX_HILL_SLOPE 2.67, HEPG2TOX_R_SQUARED 0.908, PBLUC_HILL_SLOPE 30.3, PBLUC_R_SQUARED 0.327, read-out: LUCIFERASE INFECTION ASSAY - IC50): 5.17
CC(=O)c1cccc(-c2cnc3cnc(-c4cccnc4)cn23)c1 | > 10.5 | – | pIC50 (PBLUC_HILL_SLOPE 3.62, PBLUC_R_SQUARED 0.754, read-out: LUCIFERASE INFECTION ASSAY - IC50): 5.17
CC(C)N(C(=O)CSc1nnnn1C)c1ccc(Nc2ccccc2)cc1 | > 10 | – | pIC50 (PBLUC_HILL_SLOPE 2.1, PBLUC_R_SQUARED 0.364, read-out: LUCIFERASE INFECTION ASSAY - IC50): < 5.00
Cc1ccc(C)c(Oc2ccc(NC(=O)Nc3ccc(SC(F)(F)F)cc3)cn2)c1 | 2.68 | – | pIC50 (FFLUC_HILL_SLOPE 0.447, FFLUC_R_SQUARED 0.395, HEPG2TOX_HILL_SLOPE 4.72, HEPG2TOX_R_SQUARED 0.964, PBLUC_HILL_SLOPE 32.1, PBLUC_R_SQUARED 0.384, read-out: LUCIFERASE INFECTION ASSAY - IC50): 5.60
CC(OC(=O)c1cccc(-n2cccc2)c1)C(=O)N1CCCC1 (configuration not stated) | 8.03 | – | pIC50 (PBLUC_HILL_SLOPE 4.03, PBLUC_R_SQUARED 0.34, read-out: LUCIFERASE INFECTION ASSAY - IC50): 5.33
O=C(Nc1ccc(C(F)(F)F)cc1[N+](=O)[O-])c1ccccc1O | 3.69 | – | pIC50 (HEPG2TOX_HILL_SLOPE 10.5, HEPG2TOX_R_SQUARED 0.302, PBLUC_HILL_SLOPE 15.7, PBLUC_R_SQUARED 0.498, read-out: LUCIFERASE INFECTION ASSAY - IC50): 5.49
Cc1cc(-c2cnc(N)c(-c3cccc(C(F)(F)F)c3)c2)cc(C)c1O | 4.83 | – | pIC50 (HEPG2TOX_HILL_SLOPE 1.44, HEPG2TOX_R_SQUARED 0.945, PBLUC_HILL_SLOPE 1.93, PBLUC_R_SQUARED 0.583, read-out: LUCIFERASE INFECTION ASSAY - IC50): 5.81
COc1ccc(-c2cc(NC=O)c3ncc(-c4cc(OC)c(OC)c(OC)c4)n3c2)c(OC)c1 | 5.96 | – | pIC50 (FFLUC_HILL_SLOPE 13.2, FFLUC_R_SQUARED 0.535, HEPG2TOX_HILL_SLOPE 2.06, HEPG2TOX_R_SQUARED 0.871, PBLUC_HILL_SLOPE 2.04, PBLUC_R_SQUARED 0.466, read-out: LUCIFERASE INFECTION ASSAY - IC50): 5.69
CCc1ccc(C2=NNC(=Nc3ccccc3F)SC2)s1 | > 10 | < 5.00 | –
Nc1c(C(=O)c2ccccc2)sc(Nc2ccccc2)c1C(=O)Nc1ccc(SC(F)F)cc1 | 1.28 | – | pIC50 (HEPG2TOX_HILL_SLOPE 1.49, HEPG2TOX_R_SQUARED 0.921, PBLUC_HILL_SLOPE 11.4, PBLUC_R_SQUARED 0.694, read-out: LUCIFERASE INFECTION ASSAY - IC50): 5.98
COc1cccc(-c2nc3ccc(NC(=O)Nc4cccc(C(C)=O)c4)cn3n2)c1 | > 10 | < 5.00 | –
O=S(=O)(c1ccc(Cl)c(NC(=S)N/N=C/c2ccc(O)cc2O)c1)N1CCOCC1 | 8.73 | – | pIC50 (HEPG2TOX_HILL_SLOPE 2.35, HEPG2TOX_R_SQUARED 0.922, PBLUC_HILL_SLOPE 5.37, PBLUC_R_SQUARED 0.597, read-out: LUCIFERASE INFECTION ASSAY - IC50): 5.24
CCOC(=O)N1CCN(CC(O)COc2ccc3oc4ccccc4c3c2)CC1 (configuration not stated) | > 10 | < 5.00 | –

From ChEMBL document CHEMBL4483862, “Open-source discovery of chemical leads for next-generation chemoprotective antimalarials” (2018)
